Results on eight compounds are retold here after US20220323406A1, “METHODS AND COMPOSITIONS FOR DIFFERENTIATING STEM CELLS” (Massachusetts Institute of Technology, priority 2019, published 2022).

Assay [1] deals with ENR+CD organoids (ISC to Paneth cell differentiation). The experiment in a line: Primary screen: basal (non-stimulated) lysozyme secretion LYZ.NS, 2.5-D 384-well ENR+CD organoid differentiation. Conditions: primary screen; for Z.LYZ.NS: standard z score. Format: cell-based, mouse. The source says:
(§1) High-throughput screening.

Assay [2] has the same test system. The experiment in a line: Primary screen: CCh-stimulated lysozyme secretion LYZ.S, 2.5-D 384-well ENR+CD organoid differentiation. The note with it: primary screen. Format: cell-based, mouse.
Excerpt: as §1

Assay [3] deals with ENR+CD organoids. The experiment in a line: Primary screen: ATP (CellTiter-Glo 3D, CTG) cell number/viability, 2.5-D 384-well ENR+CD organoids.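 As to all read-outs here: compounds given at plating and again on day 3 over a 6-day differentiation from ENR+CV stem-cell-enriched precursors, ATP measured on day 6, plate median as control.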 The note with it: primary screen; for Z.CTG: standard z score. (In general: In ATP-based viability assays light output follows the ATP content of the culture.)

Each structure is given as a SMILES string. Structures can show the parent of a compound that is named as a salt.

For the compound `Cn1c(N2CCCCS2(=O)=O)nc(C(=O)NCc2ccc(F)cc2)c(O)c1=O` [BMS-707035], the Dose.FC.LYZ.NS in assay [1] (dose 0.08 uM) was found to be 0.107 log2 fold change; in assay [1] (dose 0.40 uM) it was 0.135 log2 fold change; in assay [1] (dose 2.00 uM), 0.110 log2 fold change; in assay [1] (dose 10.00 uM), 0.070 log2 fold change. For the same compound, the “Z.LYZ.NS (standard z score)” value turned out to be 0.933 in assay [1] (dose 0.08 uM), 1.174 in assay [1] (dose 0.40 uM), 0.955 in assay [1] (dose 2.00 uM) and 0.613 in assay [1] (dose 10.00 uM). Besides, the Dose.FC.LYZ.S in assay [2] (dose 0.08 uM) is 0.134 log2 fold change; in assay [2] (dose 0.40 uM), 0.182 log2 fold change; in assay [2] (dose 2.00 uM), 0.048 log2 fold change; in assay [2] (dose 10.00 uM), 0.050 log2 fold change. For the same compound, the Dose.FC.CTG in assay [3] (dose 0.08 uM) is reported as 0.318 log2 fold change; in assay [3] (dose 0.40 uM), 0.238 log2 fold change; in assay [3] (dose 2.00 uM), 0.279 log2 fold change; in assay [3] (dose 10.00 uM), 0.138 log2 fold change.
As to `O=C(Oc1cc(S(=O)(=O)c2ccccc2)ccc1[N+](=O)[O-])c1ccc(Cl)cc1` [BTB06584], the Dose.FC.LYZ.NS is reported as 0.091 log2 fold change in assay [1] (dose 0.08 uM), 0.025 log2 fold change in assay [1] (dose 0.40 uM), 0.024 log2 fold change in assay [1] (dose 2.00 uM) and −0.031 log2 fold change in assay [1] (dose 10.00 uM). For the same compound, the “Z.LYZ.NS (standard z score)” value in assay [1] (dose 0.08 uM) is recorded as 0.795; in assay [1] (dose 0.40 uM), 0.214; in assay [1] (dose 2.00 uM) it was 0.206; in assay [1] (dose 10.00 uM), −0.268. The Dose.FC.LYZ.S came out at 0.222 log2 fold change in assay [2] (dose 0.08 uM), 0.042 log2 fold change in assay [2] (dose 0.40 uM), 0.039 log2 fold change in assay [2] (dose 2.00 uM) and 0.019 log2 fold change in assay [2] (dose 10.00 uM). For the same compound, the Dose.FC.CTG in assay [3] (dose 0.08 uM) was 0.275 log2 fold change; in assay [3] (dose 0.40 uM) it was 0.288 log2 fold change; in assay [3] (dose 2.00 uM) it was −0.180 log2 fold change; in assay [3] (dose 10.00 uM), 0.199 log2 fold change. Further, the “Z.CTG (standard z score)” value is 0.657 in assay [3] (dose 0.08 uM), 0.688 in assay [3] (dose 0.40 uM), −0.431 in assay [3] (dose 2.00 uM) and 0.475 in assay [3] (dose 10.00 uM).
Regarding `O=C(Nc1cccc(Nc2ncc(Br)c(NCCc3cnc[nH]3)n2)c1)N1CCCC1` [BX-912], the Dose.FC.LYZ.NS was 0.010 log2 fold change in assay [1] (dose 0.08 uM), 0.017 log2 fold change in assay [1] (dose 0.40 uM), −0.089 log2 fold change in assay [1] (dose 2.00 uM) and −0.196 log2 fold change in assay [1] (dose 10.00 uM). The Z.LYZ.NS in assay [1] (dose 0.08 uM) is recorded as 0.090; in assay [1] (dose 0.40 uM), 0.151; in assay [1] (dose 2.00 uM), −0.771; in assay [1] (dose 10.00 uM) it was −1.704. The Dose.FC.LYZ.S in assay [2] (dose 0.08 uM) is listed as 0.038 log2 fold change; in assay [2] (dose 0.40 uM) it was 0.042 log2 fold change; in assay [2] (dose 2.00 uM) it was −0.161 log2 fold change; in assay [2] (dose 10.00 uM), −0.272 log2 fold change. Besides, the Dose.FC.CTG in assay [3] (dose 0.08 uM) was 0.043 log2 fold change; in assay [3] (dose 0.40 uM), 0.054 log2 fold change; in assay [3] (dose 2.00 uM), −0.246 log2 fold change; in assay [3] (dose 10.00 uM) it was −0.397 log2 fold change. In addition, the Z.CTG was 0.103 in assay [3] (dose 0.08 uM), 0.129 in assay [3] (dose 0.40 uM), −0.587 in assay [3] (dose 2.00 uM) and −0.949 in assay [3] (dose 10.00 uM).
Regarding `CNC(=O)[C@H](Cc1ccccc1)NC(=O)[C@H](CC(C)C)[C@H](CSc1cccs1)C(=O)NO` [Batimastat (BB-94)], the Dose.FC.LYZ.NS in assay [1] (dose 0.08 uM) is given as −0.003 log2 fold change; in assay [1] (dose 0.40 uM), 0.005 log2 fold change; in assay [1] (dose 2.00 uM) it was 0.081 log2 fold change; in assay [1] (dose 10.00 uM), −0.075 log2 fold change. Further, the “Z.LYZ.NS (standard z score)” value in assay [1] (dose 0.08 uM) was −0.025; in assay [1] (dose 0.40 uM), 0.042; in assay [1] (dose 2.00 uM), 0.707; in assay [1] (dose 10.00 uM), −0.649. Besides, the Dose.FC.LYZ.S in assay [2] (dose 0.08 uM) is 0.053 log2 fold change; in assay [2] (dose 0.40 uM) it was 0.028 log2 fold change; in assay [2] (dose 2.00 uM), 0.056 log2 fold change; in assay [2] (dose 10.00 uM) it was −0.107 log2 fold change. In addition, the Dose.FC.CTG was 0.035 log2 fold change in assay [3] (dose 0.08 uM), −0.095 log2 fold change in assay [3] (dose 0.40 uM), −0.049 log2 fold change in assay [3] (dose 2.00 uM) and −0.283 log2 fold change in assay [3] (dose 10.00 uM). Besides, the “Z.CTG (standard z score)” value was 0.084 in assay [3] (dose 0.08 uM), −0.226 in assay [3] (dose 0.40 uM), −0.117 in assay [3] (dose 2.00 uM) and −0.676 in assay [3] (dose 10.00 uM).
As for `Cc1c(-c2ccc(O)cc2)n(Cc2ccc(OCCN3CCCCCC3)cc2)c2ccc(O)cc12` [Bazedoxifene HCl], the Dose.FC.LYZ.NS in assay [1] (dose 0.08 uM) is 0.159 log2 fold change; in assay [1] (dose 0.40 uM) it was 0.026 log2 fold change; in assay [1] (dose 2.00 uM) it was −0.146 log2 fold change; in assay [1] (dose 10.00 uM), −0.280 log2 fold change. The “Z.LYZ.NS (standard z score)” value in assay [1] (dose 0.08 uM) is on record as 1.386; in assay [1] (dose 0.40 uM), 0.229; in assay [1] (dose 2.00 uM), −1.267; in assay [1] (dose 10.00 uM), −2.442. In addition, the Dose.FC.LYZ.S in assay [2] (dose 0.08 uM) was 0.096 log2 fold change; in assay [2] (dose 0.40 uM), 0.065 log2 fold change; in assay [2] (dose 2.00 uM) it was −0.189 log2 fold change; in assay [2] (dose 10.00 uM), −0.361 log2 fold change. In addition, the Dose.FC.CTG in assay [3] (dose 0.08 uM) was 0.422 log2 fold change; in assay [3] (dose 0.40 uM) it was 0.365 log2 fold change; in assay [3] (dose 2.00 uM), −0.780 log2 fold change; in assay [3] (dose 10.00 uM) it was −1.148 log2 fold change.
As for `O=C(/C=C/c1cccc(S(=O)(=O)Nc2ccccc2)c1)NO` [Belinostat (PXD101)], the Dose.FC.LYZ.NS in assay [1] (dose 0.08 uM) was 0.008 log2 fold change; in assay [1] (dose 0.40 uM) it was 0.129 log2 fold change; in assay [1] (dose 2.00 uM), −0.173 log2 fold change; in assay [1] (dose 10.00 uM), −0.196 log2 fold change. In addition, the “Z.LYZ.NS (standard z score)” value in assay [1] (dose 0.08 uM) was 0.067; in assay [1] (dose 0.40 uM), 1.125; in assay [1] (dose 2.00 uM) it was −1.510; in assay [1] (dose 10.00 uM) it was −1.709. Moreover, the Dose.FC.LYZ.S in assay [2] (dose 0.08 uM) is −0.059 log2 fold change; in assay [2] (dose 0.40 uM), 0.042 log2 fold change; in assay [2] (dose 2.00 uM), −0.264 log2 fold change; in assay [2] (dose 10.00 uM) it was −0.327 log2 fold change. Also, the Dose.FC.CTG in assay [3] (dose 0.08 uM) is on record as −0.227 log2 fold change; in assay [3] (dose 0.40 uM), −0.055 log2 fold change; in assay [3] (dose 2.00 uM), −0.782 log2 fold change; in assay [3] (dose 10.00 uM), −1.122 log2 fold change. For the same compound, the “Z.CTG (standard z score)” value in assay [3] (dose 0.08 uM) is reported as −0.543; in assay [3] (dose 0.40 uM), −0.133; in assay [3] (dose 2.00 uM) it was −1.868; in assay [3] (dose 10.00 uM), −2.679.
Consider `COc1c(O)cc2c(c1O)[C@@H]1O[C@H](CO)[C@@H](O)[C@H](O)[C@H]1OC2=O` [Bergenin], for which the Dose.FC.LYZ.NS turned out to be 0.164 log2 fold change in assay [1] (dose 0.08 uM), 0.098 log2 fold change in assay [1] (dose 0.40 uM), 0.080 log2 fold change in assay [1] (dose 2.00 uM) and 0.103 log2 fold change in assay [1] (dose 10.00 uM). Moreover, the “Z.LYZ.NS (standard z score)” value turned out to be 1.432 in assay [1] (dose 0.08 uM), 0.852 in assay [1] (dose 0.40 uM), 0.699 in assay [1] (dose 2.00 uM) and 0.898 in assay [1] (dose 10.00 uM). In addition, the Dose.FC.LYZ.S in assay [2] (dose 0.08 uM) was found to be 0.198 log2 fold change; in assay [2] (dose 0.40 uM), 0.108 log2 fold change; in assay [2] (dose 2.00 uM), 0.125 log2 fold change; in assay [2] (dose 10.00 uM), 0.144 log2 fold change. Further, the Dose.FC.CTG turned out to be 0.288 log2 fold change in assay [3] (dose 0.08 uM), 0.245 log2 fold change in assay [3] (dose 0.40 uM), 0.205 log2 fold change in assay [3] (dose 2.00 uM) and 0.344 log2 fold change in assay [3] (dose 10.00 uM).
Turning to `CC[C@H](NC(=O)[C@H](C)NC)C(=O)N1C[C@@H](O)C[C@H]1Cc1c(-c2[nH]c3cc(F)ccc3c2C[C@@H]2C[C@H](O)CN2C(=O)[C@H](CC)NC(=O)[C@H](C)NC)[nH]c2cc(F)ccc12` [Birinapant], the Dose.FC.LYZ.NS in assay [1] (dose 0.08 uM) was 0.032 log2 fold change; in assay [1] (dose 0.40 uM), −0.012 log2 fold change; in assay [1] (dose 2.00 uM), 0.036 log2 fold change; in assay [1] (dose 10.00 uM), −0.029 log2 fold change. The “Z.LYZ.NS (standard z score)” value is listed as 0.281 in assay [1] (dose 0.08 uM), −0.102 in assay [1] (dose 0.40 uM), 0.317 in assay [1] (dose 2.00 uM) and −0.256 in assay [1] (dose 10.00 uM). Also, the Dose.FC.LYZ.S is 0.075 log2 fold change in assay [2] (dose 0.08 uM), 0.103 log2 fold change in assay [2] (dose 0.40 uM), 0.011 log2 fold change in assay [2] (dose 2.00 uM) and −0.080 log2 fold change in assay [2] (dose 10.00 uM). For the same compound, the Dose.FC.CTG in assay [3] (dose 0.08 uM) is −0.257 log2 fold change; in assay [3] (dose 0.40 uM), 0.095 log2 fold change; in assay [3] (dose 2.00 uM), 0.227 log2 fold change; in assay [3] (dose 10.00 uM), 0.123 log2 fold change.
